Data taken from ChEMBL document CHEMBL1201862, “PubChem BioAssay data set” (2004).
The source made the active and inactive calls.

Legend:
[1] = target: T1, Endoribonuclease toxin MazF (Escherichia coli K-12, UniProt P0AE70); assay: MazF endoribonuclease activators, SAR follow-up, biochemical, fluorescence, single-stranded RNA substrate (AID 588603); type: functional
T1 sequence (P0AE70 whole entry): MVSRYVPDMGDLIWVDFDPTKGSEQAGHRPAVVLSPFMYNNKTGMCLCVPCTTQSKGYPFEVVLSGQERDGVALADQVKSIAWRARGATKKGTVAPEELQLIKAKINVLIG

[2] = target: T1, Endoribonuclease toxin MazF; assay: MazF toxin RNase activators, dose response, biochemical, fluorescence, single-stranded RNA substrate, uHTS hits (AID 588481); type: functional
[3] = target: T1, Endoribonuclease toxin MazF; assay: SAR analysis of small molecule activators of the MazEF TA System via a fluorescence-based single-stranded RNase assay counterscreen. [Related pubchem assays (depositor defined):AID504720, AID504743]; type: functional
[4] = target: T1, Endoribonuclease toxin MazF; assay: fluorescent RNA oligo signal without MazF, dose response, counter-screen for MazEF activator project, biochemical, fluorescence, single-stranded RNase substrate (AID 588502); type: functional
[5] = tested on: MEF; assay: SAR analysis of small molecule cytotoxicity of MazEF TA System activators in embryonic fibroblast (MEF) cells. [Related pubchem assays (depositor defined):AID504720, AID504743]; type: functional; details: Mus musculus
[6] = target: T2, Caspase-3 (Homo sapiens, UniProt P42574); assay: SAR Analysis of small molecule inhibitors of Sentrin-specific proteases (SENPs) using a Caspase-3 Selectivity assay. [Related pubchem assays (depositor defined):AID2540, AID2599, AID434973, AID489001]; type: functional
T2 sequence (P42574 whole entry): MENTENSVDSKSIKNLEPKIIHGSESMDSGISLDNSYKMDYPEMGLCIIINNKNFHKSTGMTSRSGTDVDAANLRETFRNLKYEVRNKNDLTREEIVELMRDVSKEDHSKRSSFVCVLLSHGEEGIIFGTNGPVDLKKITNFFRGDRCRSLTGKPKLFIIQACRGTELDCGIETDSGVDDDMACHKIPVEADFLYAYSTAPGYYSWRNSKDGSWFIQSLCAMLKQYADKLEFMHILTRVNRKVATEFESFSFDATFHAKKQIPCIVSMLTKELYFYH

[7] = target: T3, Sentrin-specific protease 7 (Homo sapiens, UniProt Q9BQF6); assay: SENP7 protease inhibitors, SAR follow-up, biochemical, luminescence (AID 504497); type: functional
T3 sequence (Q9BQF6 whole entry): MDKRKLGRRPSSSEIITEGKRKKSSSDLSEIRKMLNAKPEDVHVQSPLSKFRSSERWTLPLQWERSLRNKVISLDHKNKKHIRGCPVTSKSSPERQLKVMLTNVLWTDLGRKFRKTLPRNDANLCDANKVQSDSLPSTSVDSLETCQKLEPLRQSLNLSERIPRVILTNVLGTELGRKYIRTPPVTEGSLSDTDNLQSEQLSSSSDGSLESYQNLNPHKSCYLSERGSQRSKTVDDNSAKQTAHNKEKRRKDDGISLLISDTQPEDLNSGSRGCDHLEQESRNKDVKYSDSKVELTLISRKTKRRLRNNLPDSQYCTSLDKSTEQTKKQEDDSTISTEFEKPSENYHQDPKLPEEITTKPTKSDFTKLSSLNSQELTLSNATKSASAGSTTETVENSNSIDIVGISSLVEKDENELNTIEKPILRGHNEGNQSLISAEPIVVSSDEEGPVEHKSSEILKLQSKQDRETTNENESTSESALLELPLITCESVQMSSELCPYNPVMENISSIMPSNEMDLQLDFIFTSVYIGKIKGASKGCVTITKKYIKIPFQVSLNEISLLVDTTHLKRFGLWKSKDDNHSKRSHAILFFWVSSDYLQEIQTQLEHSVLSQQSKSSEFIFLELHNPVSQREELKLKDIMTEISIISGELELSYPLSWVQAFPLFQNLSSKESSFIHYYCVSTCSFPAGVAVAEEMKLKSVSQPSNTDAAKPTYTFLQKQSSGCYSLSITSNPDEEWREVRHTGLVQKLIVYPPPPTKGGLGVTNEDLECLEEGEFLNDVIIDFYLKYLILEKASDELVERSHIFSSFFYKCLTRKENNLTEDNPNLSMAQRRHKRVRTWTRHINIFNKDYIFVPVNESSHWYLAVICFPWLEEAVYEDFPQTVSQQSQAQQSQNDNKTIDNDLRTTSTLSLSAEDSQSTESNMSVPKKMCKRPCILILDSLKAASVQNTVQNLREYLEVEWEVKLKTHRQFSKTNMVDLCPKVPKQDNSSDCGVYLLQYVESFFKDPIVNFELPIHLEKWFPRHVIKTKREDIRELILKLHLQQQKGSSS

[8] = target: T4, Sentrin-specific protease 8 (Homo sapiens, UniProt Q96LD8); assay: SENP8 protease inhibitors, SAR follow-up, biochemical, luminescence (AID 504501); type: functional
T4 sequence (Q96LD8 whole entry): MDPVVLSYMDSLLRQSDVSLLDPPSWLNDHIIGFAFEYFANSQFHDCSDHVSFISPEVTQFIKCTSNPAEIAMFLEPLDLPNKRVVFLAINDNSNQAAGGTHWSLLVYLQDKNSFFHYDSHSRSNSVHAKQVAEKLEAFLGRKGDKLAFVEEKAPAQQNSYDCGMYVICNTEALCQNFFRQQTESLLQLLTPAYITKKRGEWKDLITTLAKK

[9] = target: T4, Sentrin-specific protease 8; assay: SENP8 protease inhibitors, SAR follow-up, biochemical, luminescence, set 2 (AID 588601); type: functional
[10] = target: T3, Sentrin-specific protease 7; assay: SENP7 protease inhibitors, SAR follow-up, biochemical, luminescence, set 2 (AID 588600); type: functional
[11] = target: T5, Sentrin-specific protease 6 (Homo sapiens, UniProt Q9GZR1); assay: SENP6 protease inhibitors, SAR follow-up, biochemical, luminescence, set 2 (AID 588598); type: functional
T5 sequence (Q9GZR1 whole entry): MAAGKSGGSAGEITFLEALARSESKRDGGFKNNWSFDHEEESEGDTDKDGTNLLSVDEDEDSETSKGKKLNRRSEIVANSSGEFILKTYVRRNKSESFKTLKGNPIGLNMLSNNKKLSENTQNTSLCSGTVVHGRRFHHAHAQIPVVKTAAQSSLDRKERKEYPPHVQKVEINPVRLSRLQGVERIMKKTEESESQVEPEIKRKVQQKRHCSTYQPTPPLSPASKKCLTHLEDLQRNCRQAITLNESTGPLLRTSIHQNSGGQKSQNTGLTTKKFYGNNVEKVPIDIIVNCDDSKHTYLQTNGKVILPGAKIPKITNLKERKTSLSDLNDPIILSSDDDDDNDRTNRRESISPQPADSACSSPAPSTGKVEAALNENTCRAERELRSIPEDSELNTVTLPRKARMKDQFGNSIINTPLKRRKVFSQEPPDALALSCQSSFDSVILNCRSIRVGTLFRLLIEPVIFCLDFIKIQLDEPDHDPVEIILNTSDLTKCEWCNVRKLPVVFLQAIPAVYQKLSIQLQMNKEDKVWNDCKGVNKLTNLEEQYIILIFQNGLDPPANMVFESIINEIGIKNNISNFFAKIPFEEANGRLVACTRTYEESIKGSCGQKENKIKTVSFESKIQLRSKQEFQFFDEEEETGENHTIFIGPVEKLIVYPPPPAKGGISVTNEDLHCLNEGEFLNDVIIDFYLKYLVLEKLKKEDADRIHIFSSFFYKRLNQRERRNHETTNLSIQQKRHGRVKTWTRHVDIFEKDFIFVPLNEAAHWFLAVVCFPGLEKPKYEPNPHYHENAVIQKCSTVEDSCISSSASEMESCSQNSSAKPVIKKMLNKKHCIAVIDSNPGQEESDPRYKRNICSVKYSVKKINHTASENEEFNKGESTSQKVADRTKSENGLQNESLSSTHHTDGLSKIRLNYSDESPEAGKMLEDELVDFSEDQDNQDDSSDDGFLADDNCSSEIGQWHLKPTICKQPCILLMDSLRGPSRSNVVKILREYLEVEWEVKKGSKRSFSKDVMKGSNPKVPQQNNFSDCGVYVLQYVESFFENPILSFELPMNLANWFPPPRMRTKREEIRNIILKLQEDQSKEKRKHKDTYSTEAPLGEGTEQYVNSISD

[12] = target: T5, Sentrin-specific protease 6; assay: SAR Analysis of small molecule inhibitors of Sentrin-specific protease 6 (SENP6) using a Luminescent assay. [Related pubchem assays (depositor defined):AID2582, AID2599]; type: functional
[13] = target: T2, Caspase-3; assay: caspase-3 inhibitors as off-family protease, SAR follow-up, selectivity assay for SENP protease inhibitor project, biochemical, luminescence, set 2 (AID 588599); type: functional
[14] = HepG2 cell cytotoxicity, dose response, cytotoxicity control for Shn3 inhibitor project, CellTiter-Glo, cherry-picked (AID 624134); type: functional, cell-based
[15] = tested on: CHO; assay: cytotoxicity in TLR9-MyD88 CHO cells, dose response, cytotoxicity control for TLR9-MyD88 binding inhibitor project, cell-based, luminescence (AID 588339); type: functional, hamster; details: Cricetulus griseus;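 further: CHO cells stably coexpressing TLR9 and MyD88 fusions from primary screen; compound exposure lasted 48 hours before viability readout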
[16] = target: Beta Lactamase (Pseudomonas aeruginosa, UniProt Q932Y6); assay: beta-lactamase reporter inhibitor potency, dose response, artefact control for TLR9-MyD88 binding inhibitor project, BLA reporter cells, FRET fluorescence (AID 588341); type: cell-based;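 further: cell based assay in CHO-K1 cells stably expressing beta-lactamase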
Beta Lactamase, sequence (Q932Y6 whole entry): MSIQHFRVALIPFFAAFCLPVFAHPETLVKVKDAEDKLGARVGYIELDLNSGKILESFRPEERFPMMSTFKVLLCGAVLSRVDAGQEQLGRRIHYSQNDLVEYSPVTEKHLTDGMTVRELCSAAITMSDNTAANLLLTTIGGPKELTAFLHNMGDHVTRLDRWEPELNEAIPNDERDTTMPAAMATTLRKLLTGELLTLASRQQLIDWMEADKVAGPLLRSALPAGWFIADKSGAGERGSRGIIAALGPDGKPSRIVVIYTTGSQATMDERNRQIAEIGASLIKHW

[17] = Shn3 3'UTR reporter inhibitors, dose response, cell-based, Clone20 osteoblasts, firefly luciferase, cherry-picked (AID 624132); type: functional;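 further: firefly luciferase luminescence from reporter carrying the Shn3 3'UTR in osteoblasts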
[18] = control 3'UTR Renilla luciferase suppression, dose response, counter-screen for Shn3 inhibitor project, cell-based, Clone20-Shn3RL, cherry-picked (AID 624133); type: functional
[19] = viability loss in Mcl1-dependent HMC-1-8 cells, dose response, selectivity assay for A1 inhibitor project, cell-based, luminescence, dry powder (AID 504415); type: functional; details: Homo sapiens
[20] = target: Phospholipase D2 (Homo sapiens, UniProt O14939); assay: PLD2 inhibitor potency in cells, dose response (AID 602147); type: functional;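 further: cellular assay in HEK293 cells overexpressing GFP-tagged PLD2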
Phospholipase D2, sequence (O14939 whole entry): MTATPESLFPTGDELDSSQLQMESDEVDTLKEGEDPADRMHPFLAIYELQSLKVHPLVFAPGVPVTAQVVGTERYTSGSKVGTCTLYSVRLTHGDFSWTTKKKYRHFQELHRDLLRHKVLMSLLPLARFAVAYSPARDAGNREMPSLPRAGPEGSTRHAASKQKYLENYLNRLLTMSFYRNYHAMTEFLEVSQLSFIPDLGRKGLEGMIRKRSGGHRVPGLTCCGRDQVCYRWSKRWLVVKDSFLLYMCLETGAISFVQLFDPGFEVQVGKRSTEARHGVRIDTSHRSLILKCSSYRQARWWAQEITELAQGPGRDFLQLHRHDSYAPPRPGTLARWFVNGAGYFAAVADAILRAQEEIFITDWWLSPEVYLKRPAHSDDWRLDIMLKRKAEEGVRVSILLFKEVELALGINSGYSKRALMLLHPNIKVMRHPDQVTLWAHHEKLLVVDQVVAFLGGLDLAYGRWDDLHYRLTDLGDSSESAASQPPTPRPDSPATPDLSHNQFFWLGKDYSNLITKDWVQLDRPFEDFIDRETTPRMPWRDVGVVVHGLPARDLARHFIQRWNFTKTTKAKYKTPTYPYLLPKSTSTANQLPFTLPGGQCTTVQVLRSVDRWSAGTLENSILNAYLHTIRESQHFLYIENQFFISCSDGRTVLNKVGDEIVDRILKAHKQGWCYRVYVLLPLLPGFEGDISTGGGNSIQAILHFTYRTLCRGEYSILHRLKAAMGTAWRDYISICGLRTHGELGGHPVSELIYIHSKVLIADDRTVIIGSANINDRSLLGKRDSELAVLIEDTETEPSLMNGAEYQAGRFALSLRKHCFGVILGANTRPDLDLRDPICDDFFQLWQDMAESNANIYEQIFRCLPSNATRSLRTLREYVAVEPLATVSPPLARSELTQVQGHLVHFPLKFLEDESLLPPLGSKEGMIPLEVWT

[21] = target: Phospholipase D1 (Homo sapiens, UniProt Q13393); assay: PLD1 inhibitor potency in cells, dose response (AID 602151); type: functional;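 further: cellular PLD1 assay in Calu-1 cells stimulated with PMA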
Phospholipase D1, sequence (Q13393 whole entry): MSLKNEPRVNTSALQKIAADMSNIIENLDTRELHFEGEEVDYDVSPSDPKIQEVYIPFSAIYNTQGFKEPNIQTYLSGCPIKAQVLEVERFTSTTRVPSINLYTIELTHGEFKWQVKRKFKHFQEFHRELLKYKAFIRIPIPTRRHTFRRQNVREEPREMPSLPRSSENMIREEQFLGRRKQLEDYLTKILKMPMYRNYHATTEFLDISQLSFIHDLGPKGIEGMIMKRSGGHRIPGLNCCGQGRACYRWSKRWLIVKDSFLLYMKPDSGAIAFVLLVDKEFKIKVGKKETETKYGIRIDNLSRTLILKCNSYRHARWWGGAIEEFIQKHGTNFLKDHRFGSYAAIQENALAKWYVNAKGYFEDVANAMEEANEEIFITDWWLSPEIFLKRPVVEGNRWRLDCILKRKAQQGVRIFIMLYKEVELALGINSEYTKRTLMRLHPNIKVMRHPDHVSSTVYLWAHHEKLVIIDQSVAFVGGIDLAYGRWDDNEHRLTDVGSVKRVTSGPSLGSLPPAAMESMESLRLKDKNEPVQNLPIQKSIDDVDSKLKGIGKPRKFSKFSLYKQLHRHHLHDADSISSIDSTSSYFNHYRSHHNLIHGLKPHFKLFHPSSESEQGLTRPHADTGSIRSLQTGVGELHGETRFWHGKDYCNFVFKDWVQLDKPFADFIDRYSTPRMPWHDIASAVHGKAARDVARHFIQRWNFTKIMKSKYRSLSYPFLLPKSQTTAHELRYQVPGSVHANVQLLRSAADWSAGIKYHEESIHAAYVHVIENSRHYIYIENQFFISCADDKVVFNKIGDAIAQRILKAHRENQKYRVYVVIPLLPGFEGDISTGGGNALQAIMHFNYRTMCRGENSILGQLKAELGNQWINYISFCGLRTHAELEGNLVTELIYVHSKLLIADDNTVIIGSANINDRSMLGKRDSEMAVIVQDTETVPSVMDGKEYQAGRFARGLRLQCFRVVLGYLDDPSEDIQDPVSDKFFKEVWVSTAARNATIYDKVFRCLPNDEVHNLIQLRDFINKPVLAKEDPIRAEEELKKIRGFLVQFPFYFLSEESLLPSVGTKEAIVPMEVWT

[22] = HEK293 cell cytotoxicity, dose response, cytotoxicity control, plate reader, cherry-picked samples (AID 743446); type: functional, cell-based
[23] = MC4R antagonists, dose response, counter-screen for LGR2 antagonist project, cell-based, plate reader, cherry pick (AID 743444); type: functional;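 further: transfected HEK 293 cells stimulated with alpha-MSH peptide; potency of inhibitors of the alpha-MSH evoked signal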
[24] = tested on: INS1; assay: INS-1E beta-cell viability without cytokines, dose response, cytotoxicity control for beta-cell cytokine protection project, CellTiter-Glo luminescence, dry powder (AID 488864); type: functional, cell-based; details: Rattus norvegicus
[25] = HepG2 cell cytotoxicity, dose response, cytotoxicity control, plate reader, cherry-pick, antagonist series (AID 743416); type: functional, cell-based
[26] = tested on: INS1; assay: inhibitors of cytokine-induced nitrite release, dose response, cell-based, Griess absorbance, INS-1E, dry powder, set 2 (AID 488868); type: functional; details: Rattus norvegicus
[27] = inhibitors of cytokine-induced nitrite release, dose response, cell-based, Griess absorbance, INS-1E, dry powder, set 3 (AID 488870); type: functional; details: Rattus norvegicus
[28] = A549 cell cytotoxicity, dose response, cytotoxicity control, plate reader, cherry-pick, antagonist series (AID 743412); type: functional, cell-based
[29] = LGR2 antagonists, dose response, cell-based, HEK293, CRE-luciferase reporter, cherry pick, set 2 (AID 743343); type: functional;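 further: transfected cells were stimulated with diluted bursicon conditioned medium after compound addition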

O=C(NC(=O)c1ccc(F)cc1)Nc1nc(-c2cccs2)cc(C(F)(F)F)n1
inactive: EC50 [1] > 99 µM | EC50 [2] 20.3 µM | EC50 [3] > 99 µM | EC50 [4] > 99 µM | CC50 [5] > 99 µM

CC(=O)Nc1ccc(/C=C/c2noc(-c3ccccc3O)n2)cc1
active: IC50 [6] 35 µM | IC50 [7] 7.2 µM | IC50 [9] 1.86 µM | IC50 [10] 2.31 µM
inactive: IC50 [8] > 99 µM | IC50 [11] > 99 µM | IC50 [12] > 99 µM | IC50 [13] > 99 µM

C=C1C(=O)c2sccc2C(c2ccc(OC)c(OC)c2)C1COC(C)=O (centres undefined)
active: AC50 [14] 6.99 µM | IC50 [15] 1.69 µM | AC50 [17] 662 nM | AC50 [18] 3.62 µM
inactive: IC50 [16] 21.4 µM

Cc1ccc(Sc2c([N+](=O)[O-])c(=O)oc3ccccc23)cc1
active: AC50 [19] 37.1 µM

C[C@@H](CN1CCC(n2c(=O)[nH]c3ccccc32)CC1)NC(=O)c1ccc(F)c(F)c1
active: IC50 [20] 1.6 µM | IC50 [21] 20 nM

COc1ccc(S(=O)(=O)N(C)C[C@@H]2Oc3c(NC(=O)c4nc5ccccc5s4)cccc3C(=O)N([C@@H](C)CO)C[C@H]2C)cc1
inactive: AC50 [22] > 52 µM
active: AC50 [23] 28.8 µM | AC50 [24] 32.7 µM | AC50 [25] 23.7 µM | AC50 [26] 30.7 µM | AC50 [27] 38.6 µM | AC50 [28] 15 µM | AC50 [29] 9.82 µM
